Reference: patent US20120122860A1, “SOLID FORMS OF SULFONAMIDES AND AMINO ACIDS” (Plexxikon, Inc., priority 2009, published 2012)

Columns and labels:
B-Raf = B-Raf (Homo sapiens, UniProt P15056); assay: Kinase activity assay, B-Raf; format: biochemical; conditions: read-out: activity toward kinase B-Raf, IC50
B-Raf V600E = B-Raf V600E (Homo sapiens, UniProt P15056, V600E); assay: Kinase activity assay, B-Raf V600E; format: biochemical; conditions: read-out: activity toward kinase B-Raf V600E, IC50
B-Raf V600E, sequence (P15056 whole entry V600E): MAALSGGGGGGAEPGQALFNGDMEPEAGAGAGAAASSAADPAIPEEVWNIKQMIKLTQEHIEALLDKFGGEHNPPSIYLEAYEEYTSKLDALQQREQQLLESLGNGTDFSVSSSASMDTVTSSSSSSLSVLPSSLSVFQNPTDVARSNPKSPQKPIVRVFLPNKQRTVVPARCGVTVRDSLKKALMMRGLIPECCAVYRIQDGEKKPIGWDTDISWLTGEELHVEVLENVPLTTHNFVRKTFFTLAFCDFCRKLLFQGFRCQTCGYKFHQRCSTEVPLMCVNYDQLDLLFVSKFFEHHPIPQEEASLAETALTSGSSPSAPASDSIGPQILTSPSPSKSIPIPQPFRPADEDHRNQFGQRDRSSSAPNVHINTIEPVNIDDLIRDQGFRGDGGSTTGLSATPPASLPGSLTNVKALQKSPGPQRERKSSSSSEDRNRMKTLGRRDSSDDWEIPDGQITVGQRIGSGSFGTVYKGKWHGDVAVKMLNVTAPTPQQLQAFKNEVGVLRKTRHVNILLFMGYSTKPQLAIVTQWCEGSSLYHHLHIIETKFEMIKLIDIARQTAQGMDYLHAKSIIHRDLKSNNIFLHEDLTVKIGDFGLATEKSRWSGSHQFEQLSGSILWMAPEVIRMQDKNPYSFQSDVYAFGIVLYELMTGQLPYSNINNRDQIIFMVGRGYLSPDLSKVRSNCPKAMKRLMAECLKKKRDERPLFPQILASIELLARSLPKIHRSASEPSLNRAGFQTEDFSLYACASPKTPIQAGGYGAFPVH

Kdr = Kdr (Homo sapiens, UniProt P35968); assay: Kinase activity assay, Kdr
Kdr, sequence (P35968 20-1356): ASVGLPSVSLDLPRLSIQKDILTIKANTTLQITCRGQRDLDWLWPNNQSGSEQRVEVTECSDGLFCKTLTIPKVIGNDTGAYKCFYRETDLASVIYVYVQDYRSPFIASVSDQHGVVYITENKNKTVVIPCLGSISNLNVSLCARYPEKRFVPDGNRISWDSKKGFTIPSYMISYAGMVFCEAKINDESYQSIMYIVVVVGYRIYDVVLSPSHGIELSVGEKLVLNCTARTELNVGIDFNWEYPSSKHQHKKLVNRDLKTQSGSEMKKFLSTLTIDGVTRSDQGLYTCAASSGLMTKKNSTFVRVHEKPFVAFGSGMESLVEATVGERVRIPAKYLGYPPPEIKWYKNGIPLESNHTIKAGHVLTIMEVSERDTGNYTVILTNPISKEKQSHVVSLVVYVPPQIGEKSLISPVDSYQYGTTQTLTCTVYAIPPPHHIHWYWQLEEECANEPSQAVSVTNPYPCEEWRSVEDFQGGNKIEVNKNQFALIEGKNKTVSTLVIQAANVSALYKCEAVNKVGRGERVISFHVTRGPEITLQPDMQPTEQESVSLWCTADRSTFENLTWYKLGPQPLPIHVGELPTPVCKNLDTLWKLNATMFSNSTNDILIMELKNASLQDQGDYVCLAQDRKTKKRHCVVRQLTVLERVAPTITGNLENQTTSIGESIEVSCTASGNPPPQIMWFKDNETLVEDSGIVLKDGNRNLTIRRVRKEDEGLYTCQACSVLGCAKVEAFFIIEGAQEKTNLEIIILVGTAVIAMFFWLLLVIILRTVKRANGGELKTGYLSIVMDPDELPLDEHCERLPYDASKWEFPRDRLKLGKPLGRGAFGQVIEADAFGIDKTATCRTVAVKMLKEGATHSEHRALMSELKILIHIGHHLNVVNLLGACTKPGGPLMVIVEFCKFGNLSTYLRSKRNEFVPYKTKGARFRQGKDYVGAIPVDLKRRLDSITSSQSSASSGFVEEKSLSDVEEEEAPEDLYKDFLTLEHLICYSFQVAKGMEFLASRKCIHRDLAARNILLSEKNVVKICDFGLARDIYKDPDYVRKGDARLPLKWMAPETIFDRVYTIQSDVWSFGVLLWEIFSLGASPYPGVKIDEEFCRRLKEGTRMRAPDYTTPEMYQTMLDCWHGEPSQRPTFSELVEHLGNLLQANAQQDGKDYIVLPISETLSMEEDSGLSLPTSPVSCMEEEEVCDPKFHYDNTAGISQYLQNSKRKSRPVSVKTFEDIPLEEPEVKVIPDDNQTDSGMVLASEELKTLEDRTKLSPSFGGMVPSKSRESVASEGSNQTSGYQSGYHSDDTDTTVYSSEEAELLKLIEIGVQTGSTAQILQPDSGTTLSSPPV

C-Raf = C-Raf (Homo sapiens, UniProt P04049); assay: Kinase activity assay, C-Raf
C-Raf, sequence (P04049 whole entry): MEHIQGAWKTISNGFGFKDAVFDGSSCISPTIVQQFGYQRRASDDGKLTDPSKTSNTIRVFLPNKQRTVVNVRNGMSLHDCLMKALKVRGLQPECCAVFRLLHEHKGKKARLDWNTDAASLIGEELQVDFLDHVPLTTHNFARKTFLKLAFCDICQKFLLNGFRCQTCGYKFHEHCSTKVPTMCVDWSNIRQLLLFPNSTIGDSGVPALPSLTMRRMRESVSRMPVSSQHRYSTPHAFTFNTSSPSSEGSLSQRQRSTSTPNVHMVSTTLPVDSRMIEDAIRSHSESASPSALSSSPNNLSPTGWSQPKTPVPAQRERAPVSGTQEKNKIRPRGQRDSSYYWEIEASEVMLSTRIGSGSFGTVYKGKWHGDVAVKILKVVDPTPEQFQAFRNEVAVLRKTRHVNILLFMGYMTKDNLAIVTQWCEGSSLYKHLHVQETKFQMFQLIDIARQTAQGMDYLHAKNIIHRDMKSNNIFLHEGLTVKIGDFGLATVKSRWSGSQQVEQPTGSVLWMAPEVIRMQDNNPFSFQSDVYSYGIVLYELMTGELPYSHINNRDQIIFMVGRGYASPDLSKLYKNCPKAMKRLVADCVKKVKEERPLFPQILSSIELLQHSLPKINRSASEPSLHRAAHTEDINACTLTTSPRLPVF

B-Raf, sequence (P15056 whole entry): as the sequence (P15056 whole entry V600E) above, with E600V counted along it

| SMILES | IC50 (B-Raf) [µM] | IC50 (B-Raf V600E) [µM] | IC50 (Kdr) [µM] | IC50 (C-Raf) [µM] |
| --- | --- | --- | --- | --- |
| CCCS(=O)(=O)Nc1ccc(F)c(C(=O)c2c[nH]c3ncc(-c4cnc(SC)nc4)cc23)c1F [P-2189, Propane-1-sulfonic acid {2,4-difluoro-3-[5-(2-methylsulfanyl-pyrimidin-5-yl)-1H-pyrrolo[2,3-b]pyridine-3-carbonyl]-phenyl}-amide] | ≤ 10 | ≤ 10 | ≤ 10 |  |
| Cc1c(S(=O)(=O)Nc2ccc(F)c(C(=O)c3c[nH]c4ncc(C#N)cc34)c2F)cnn1C [P-2082, 1,5-Dimethyl-1H-pyrazole-4-sulfonic acid [3-(5-cyano-1H-pyrrolo[2,3-b]pyridine-3-carbonyl)-2,4-difluoro-phenyl]-amide] |  | ≤ 10 | ≤ 10 |  |
| CN(C)S(=O)(=O)Nc1cccc(C(=O)c2c[nH]c3ncc(Cl)cc23)c1 [P-2470, N,N-dimethylamino-sulfonic acid [3-(5-chloro-1H-pyrrolo[2,3-b]pyridine-3-carbonyl)-phenyl]-amide] |  |  | ≤ 10 |  |
| N#Cc1cnc2[nH]cc(C(=O)c3cccc(NS(=O)(=O)Cc4ccncc4)c3F)c2c1 [P-2097, N-[3-(5-Cyano-1H-pyrrolo[2,3-b]pyridine-3-carbonyl)-2-fluoro-phenyl]-C-pyridin-4-yl-methanesulfonamide] |  | ≤ 10 | ≤ 10 |  |
| CCCS(=O)(=O)Nc1ccc(F)c(C(=O)c2c[nH]c3ncc(-c4cnc(N5CCOCC5)nc4)cc23)c1F [P-2197, Propane-1-sulfonic acid {2,4-difluoro-3-[5-(2-morpholin-4-yl-pyrimidin-5-yl)-1H-pyrrolo[2,3-b]pyridine-3-carbonyl]-phenyl}-amide] | ≤ 10 | ≤ 10 | ≤ 10 |  |
| CS(=O)(=O)Nc1ccc(F)c(C(=O)c2c[nH]c3ncc(C#N)cc23)c1F [P-2294, N-[3-(5-Cyano-1H-pyrrolo[2,3-b]pyridine-3-carbonyl)-2,4-difluoro-phenyl]-methanesulfonamide] |  | ≤ 10 | ≤ 10 | ≤ 10 |
| N#Cc1cnc2[nH]cc(C(=O)c3cccc(NS(=O)(=O)Cc4ccccn4)c3F)c2c1 [P-2098, N-[3-(5-Cyano-1H-pyrrolo[2,3-b]pyridine-3-carbonyl)-2-fluoro-phenyl]-C-pyridin-2-yl-methanesulfonamide] |  | ≤ 10 |  |  |
| Cc1c(S(=O)(=O)Nc2cccc(C(=O)c3c[nH]c4ncc(C#N)cc34)c2F)cnn1C [P-2091, 1,5-Dimethyl-1H-pyrazole-4-sulfonic acid [3-(5-cyano-1H-pyrrolo[2,3-b]pyridine-3-carbonyl)-2-fluoro-phenyl]-amide] |  | ≤ 10 |  |  |
| Cc1oncc1S(=O)(=O)Nc1ccc(F)c(C(=O)c2c[nH]c3ncc(C#N)cc23)c1F [P-2081, 5-Methyl-isoxazole-4-sulfonic acid [3-(5-cyano-1H-pyrrolo[2,3-b]pyridine-3-carbonyl)-2,4-difluoro-phenyl]-amide] |  | ≤ 10 | ≤ 10 | ≤ 10 |
| O=C(c1cccc(NS(=O)(=O)C2CCCC2)c1)c1c[nH]c2ncc(F)cc12 [P-2463, Cyclopentanesulfonic acid [3-(5-fluoro-1H-pyrrolo[2,3-b]pyridine-3-carbonyl)-phenyl]-amide] |  |  | ≤ 10 |  |
| CCn1cc(S(=O)(=O)Nc2cccc(C(=O)c3c[nH]c4ncc(C#N)cc34)c2F)cn1 [P-2089, 1-Ethyl-1H-pyrazole-4-sulfonic acid [3-(5-cyano-1H-pyrrolo[2,3-b]pyridine-3-carbonyl)-2-fluoro-phenyl]-amide] |  | ≤ 10 | ≤ 10 | ≤ 10 |
| O=C(c1c(F)ccc(NS(=O)(=O)c2ccc(C(F)(F)F)cc2)c1F)c1c[nH]c2ncc(C3CC3)cc12 [P-2483, N-[3-(5-Cyclopropyl-1H-pyrrolo[2,3-b]pyridine-3-carbonyl)-2,4-difluoro-phenyl]-4-trifluoromethyl-benzenesulfonamide] |  |  | ≤ 10 | ≤ 10 |
| COc1ccnc2[nH]cc(C(=O)c3c(F)ccc(NS(=O)(=O)c4ncn[nH]4)c3F)c12 [P-2068, 2H-[1,2,4]Triazole-3-sulfonic acid [2,4-difluoro-3-(4-methoxy-1H-pyrrolo[2,3-b]pyridine-3-carbonyl)-phenyl]-amide] |  | ≤ 10 |  | ≤ 10 |
| N#Cc1cnc2[nH]cc(C(=O)c3c(F)ccc(NS(=O)(=O)Cc4ccccn4)c3F)c2c1 [P-2093, N-[3-(5-Cyano-1H-pyrrolo[2,3-b]pyridine-3-carbonyl)-2,4-difluoro-phenyl]-C-pyridin-2-yl-methanesulfonamide] |  | ≤ 10 | ≤ 10 |  |
| CCCS(=O)(=O)Nc1ccc(F)c(C(=O)c2c[nH]c3ncc(-c4ccc(S(=O)(=O)N5CCCCC5)cc4)cc23)c1F [P-2186, Propane-1-sulfonic acid (2,4-difluoro-3-{5-[4-(piperidine-1-sulfonyl)-phenyl]-1H-pyrrolo[2,3-b]pyridine-3-carbonyl}-phenyl)-amide] | ≤ 10 | ≤ 10 | ≤ 10 |  |
| CCCS(=O)(=O)Nc1ccc(F)c(C(=O)c2c[nH]c3ncc(S(C)(=O)=O)cc23)c1F [P-2173, Propane-1-sulfonic acid [2,4-difluoro-3-(5-methanesulfonyl-1H-pyrrolo[2,3-b]pyridine-3-carbonyl)-phenyl]-amide] | ≤ 10 | ≤ 10 |  |  |
| COc1ccc(S(=O)(=O)Nc2cccc(C(=O)c3c[nH]c4ncc(C#N)cc34)c2F)cn1 [P-2092, 6-Methoxy-pyridine-3-sulfonic acid [3-(5-cyano-1H-pyrrolo[2,3-b]pyridine-3-carbonyl)-2-fluoro-phenyl]-amide] |  | ≤ 10 |  | ≤ 10 |
| CC(C)S(=O)(=O)Nc1cccc(C(=O)c2c[nH]c3ncc(C#N)cc23)c1F [P-2411, Propane-2-sulfonic acid [3-(5-cyano-1H-pyrrolo[2,3-b]pyridine-3-carbonyl)-2-fluoro-phenyl]-amide] |  | ≤ 10 |  | ≤ 10 |
| N#Cc1cnc2[nH]cc(C(=O)c3cccc(NS(=O)(=O)Cc4cccnc4)c3F)c2c1 [P-2096, N-[3-(5-Cyano-1H-pyrrolo[2,3-b]pyridine-3-carbonyl)-2-fluoro-phenyl]-C-pyridin-3-yl-methanesulfonamide] |  | ≤ 10 | ≤ 10 |  |
| O=C(c1c(F)ccc(NS(=O)(=O)C2(C(=O)O)CC2)c1F)c1c[nH]c2ncc(Br)cc12 [P-2349, 1-[3-(5-Bromo-1H-pyrrolo[2,3-b]pyridine-3-carbonyl)-2,4-difluoro-phenylsulfamoyl]-cyclopropanecarboxylic acid] |  |  | ≤ 10 |  |
| CCn1cc(S(=O)(=O)Nc2ccc(F)c(C(=O)c3c[nH]c4ncc(C#N)cc34)c2F)cn1 [P-2083, 1-Ethyl-1H-pyrazole-4-sulfonic acid [3-(5-cyano-1H-pyrrolo[2,3-b]pyridine-3-carbonyl)-2,4-difluoro-phenyl]-amide] |  | ≤ 10 |  | ≤ 10 |
| N#Cc1cnc2[nH]cc(C(=O)c3cccc(NS(=O)(=O)N4CCOCC4)c3F)c2c1 [P-2421, Morpholine-4-sulfonic acid [3-(5-cyano-1H-pyrrolo[2,3-b]pyridine-3-carbonyl)-2-fluoro-phenyl]-amide] |  | ≤ 10 |  | ≤ 10 |
| N#Cc1cnc2[nH]cc(C(=O)c3c(F)ccc(NS(=O)(=O)Cc4ccncc4)c3F)c2c1 [P-2095, N-[3-(5-Cyano-1H-pyrrolo[2,3-b]pyridine-3-carbonyl)-2,4-difluoro-phenyl]-C-pyridin-4-yl-methanesulfonamide] |  | ≤ 10 | ≤ 10 |  |
